From patent US12528826B2, “[1,4]oxazepino[2,3-c]quinolinone derivatives as BCL6 inhibitors” (Cancer Research Technology Limited, priority 2019, dated 2026) come the findings set out here.

For the first assay, the target named is T1, Trx-6×His-BCL6 (human BCL6 BTB domain covering amino-acid sequence 5-129) (Homo sapiens, UniProt P41182).
T1 construct: made in house
Kind of assay: HTRF assay (BCL6 / BCOR peptide). Type of assay: binding. As to conditions: 1 nM Trx-6×His-BCL6, 300 nM BCOR-AF633 peptide, 2 hours incubation at room temperature. The method, then: After 2 hours incubation at room temperature the plate was read on a Pherastar FSX (BMG Labtech) plate reader equipped with 337 nm laser excitation filter, a first emission filter at 620 nm and a second emission filter at 665 nm. The % inhibition at each concentration was calculated by normalising FRET ratio to the appropriate high (DMSO with all reagents) and low (DMSO without BCL6) controls.
(In general: Time-resolved FRET reads energy transfer from a long-lived donor to a nearby acceptor.)
“(S)-10-((5-chloro-2-((R)-4,4-difluoro-3-methylpiperidin-1-yl)pyrimidin-4-yl)amino)-2-cyclopropyl-3,3-difluoro-7-methyl-1,2,3,4-tetrahydro-[1,4]oxazepino[2,3-c]quinolin-6(7H)-one or (S)-10-((5-chloro-2-((S)-4,4-difluoro-3-methylpiperidin-1-yl)pyrimidin-4-yl)amino)-2-cyclopropyl-3,3-difluoro-7-methyl-1,2,3,4-tetrahydro-[1,4]oxazepino[2,3-c]quinolin-6(7H)-one [Example 14b]”: the “HTRF avg pIC50” value is reported as 7.33.
Same read-out and setting: the result for `Cn1c(=O)c2c(c3cc(Nc4nc(N5CCC[C@H](O)C5)ncc4Cl)ccc31)N[C@@H](C1CC1)C(F)(F)CO2` [Example 1i, (S)-10-((5-chloro-2-((S)-3-hydroxypiperidin-1-yl)pyrimidin-4-yl)amino)-2-cyclopropyl-3,3-difluoro-7-methyl-1,2,3,4-tetrahydro-[1,4]oxazepino[2,3-c]quinolin-6(7H)-one] reads 8.51.
On the same count and under the same terms, with `CC(=O)N[C@H]1C[C@@H](C)CN(c2ncc(Cl)c(Nc3ccc4c(c3)c3c(c(=O)n4C)OCC(F)(F)[C@H](C4CC4)N3)n2)C1` [Example 1f, N-((3S,5R)-1-(5-chloro-4-(((S)-2-cyclopropyl-3,3-difluoro-7-methyl-6-oxo-1,2,3,4,6,7-hexahydro-[1,4]oxazepino[2,3-c]quinolin-10-yl)amino)pyrimidin-2-yl)-5-methylpiperidin-3-yl)acetamide] the figure was 8.60.

Staying with this assay, now noted: 1 nM Trx-6×His-BCL6, 300 nM BCOR-AF633 peptide, 2 hours incubation at room temperature; read-out: HTRF avg pIC50 (converted).
Regarding `Cn1c(=O)c2c(c3cc(Nc4nc(N5CCC(F)(F)CC5)ncc4F)ccc31)N[C@@H](C1CC1)C(F)(F)CO2` [Example 2b, (S)-2-cyclopropyl-10-((2-(4,4-difluoropiperidin-1-yl)-5-fluoropyrimidin-4-yl)amino)-3,3-difluoro-7-methyl-1,2,3,4-tetrahydro-[1,4]oxazepino[2,3-c]quinolin-6(7H)-one], the IC50 was 22.4 nM.
As to `Cn1c(=O)c2c(c3cc(Nc4nc(NC5CCC(F)(F)CC5)ncc4Cl)ccc31)N[C@@H](C1CC1)C(F)(F)CO2` [Example 12x24, (S)-10-((5-chloro-2-((4,4-difluorocyclohexyl)amino)pyrimidin-4-yl)amino)-2-cyclopropyl-3,3-difluoro-7-methyl-1,2,3,4-tetrahydro-[1,4]oxazepino[2,3-c]quinolin-6(7H)-one], the IC50 is 14.5 nM.
As to `C[C@H]1CN(c2ncc(F)c(Nc3ccc4c(c3)c3c(c(=O)n4C)OCC(F)(F)[C@H](C4CC4)N3)n2)CCO1` [Example 13p08, (S)-2-cyclopropyl-3,3-difluoro-10-((5-fluoro-2-((S)-2-methylmorpholino)pyrimidin-4-yl)amino)-7-methyl-1,2,3,4-tetrahydro-[1,4]oxazepino[2,3-c]quinolin-6(7H)-one], the IC50 is 10.5 nM.
`Cn1c(=O)c2c(c3cc(Nc4nc(N5CCC[C@H](CO)C5)ncc4Cl)ccc31)N[C@@H](C1CC1)C(F)(F)CO2` [Example 9q, (S)-10-((5-chloro-2-((S)-3-(hydroxymethyl)piperidin-1-yl)pyrimidin-4-yl)amino)-2-cyclopropyl-3,3-difluoro-7-methyl-1,2,3,4-tetrahydro-[1,4]oxazepino[2,3-c]quinolin-6(7H)-one]: the IC50 is 4.27 nM.
The same measure, in the same setting: the result for `Cn1c(=O)c2c(c3cc(Nc4nc(N5C[C@@H](O)C[C@@H](F)C5)ncc4Cl)ccc31)N[C@@H](C1CC1)C(F)(F)CO2` [Example 9a-2, (S)-10-((5-chloro-2-((3R,5S)-3-fluoro-5-hydroxypiperidin-1-yl)pyrimidin-4-yl)amino)-2-cyclopropyl-3,3-difluoro-7-methyl-1,2,3,4-tetrahydro-[1,4]oxazepino[2,3-c]quinolin-6(7H)-one] reads 2.95 nM; that for `CC(=O)N(C)[C@H]1CN(c2ncc(Cl)c(Nc3ccc4c(c3)c3c(c(=O)n4C)OCC(F)(F)[C@H](C4CC4)N3)n2)CCC1(F)F` [Example 9n, N-((S)-1-(5-chloro-4-(((S)-2-cyclopropyl-3,3-difluoro-7-methyl-6-oxo-1,2,3,4,6,7-hexahydro-[1,4]oxazepino[2,3-c]quinolin-10-yl)amino)pyrimidin-2-yl)-4,4-difluoropiperidin-3-yl)-N-methylacetamide], 4.9 nM; that for `Cn1c(=O)c2c(c3cc(Nc4nc(N5CC6CC5CC6(F)F)ncc4Cl)ccc31)N[C@@H](C1CC1)C(F)(F)CO2` (mixture of isomers) [Example 9l, (S)-10-((5-chloro-2-((1R,4R)-5,5-difluoro-2-azabicyclo[2.2.1]heptan-2-yl)pyrimidin-4-yl)amino)-2-cyclopropyl-3,3-difluoro-7-methyl-1,2,3,4-tetrahydro-[1,4]oxazepino[2,3-c]quinolin-6(7H)-one; (S)-10-((5-chloro-2-((1S,4S)-5,5-difluoro-2-azabicyclo[2.2.1]heptan-2-yl)pyrimidin-4-yl)amino)-2-cyclopropyl-3,3-difluoro-7-methyl-1,2,3,4-tetrahydro-[1,4]oxazepino[2,3-c]quinolin-6(7H)-one], 11.7 nM.
On the same count and under the same terms, the result for `CC1CCCN(c2ncc(Cl)c(Nc3ccc4c(c3)c3c(c(=O)n4C)OCC(F)(F)[C@H](C4CC4)N3)n2)CC1` (mixture of isomers) [Example 11d, (S)-10-((5-chloro-2-((R)-4-methylazepan-1-yl)pyrimidin-4-yl)amino)-2-cyclopropyl-3,3-difluoro-7-methyl-1,2,3,4-tetrahydro-[1,4]oxazepino[2,3-c]quinolin-6(7H)-one:(S)-10-((5-chloro-2-((S)-4-methylazepan-1-yl)pyrimidin-4-yl)amino)-2-cyclopropyl-3,3-difluoro-7-methyl-1,2,3,4-tetrahydro-[1,4]oxazepino[2,3-c]quinolin-6(7H)-one (1:1)] reads 64.6 nM.
Still for that read-out and setting: with `CC1CC(C(=O)N2CC(F)(F)C2)CN(c2ncc(Cl)c(Nc3ccc4c(c3)c3c(c(=O)n4C)OCC(F)(F)[C@H](C4CC4)N3)n2)C1` (stereo partly drawn) [Example 12x31, (2S)-10-((5-chloro-2-(3-(3,3-difluoroazetidine-1-carbonyl)-5-methylpiperidin-1-yl)pyrimidin-4-yl)amino)-2-cyclopropyl-3,3-difluoro-7-methyl-1,2,3,4-tetrahydro-[1,4]oxazepino[2,3-c]quinolin-6(7H)-one] the figure was 3.8 nM; with `CC1CN(c2ncc(Cl)c(Nc3ccc4c(c3)c3c(c(=O)n4C)OCC(F)(F)[C@H](C4CC4)N3)n2)CC(C)[S+]1[O-]` (stereo partly drawn) [Example 12x09, (2S)-10-((5-chloro-2-(2,6-dimethyl-1-oxidothiomorpholino)pyrimidin-4-yl)amino)-2-cyclopropyl-3,3-difluoro-7-methyl-1,2,3,4-tetrahydro-[1,4]oxazepino[2,3-c]quinolin-6(7H)-one], 1.7 nM; with `Cn1c(=O)c2c(c3cc(Nc4nc(N5C[C@H](F)C[C@H](F)C5)ncc4Cl)ccc31)N[C@@H](C1CC1)C(F)(F)CO2` [Example 9s, (S)-10-((5-chloro-2-((3S,5R)-3,5-difluoropiperidin-1-yl)pyrimidin-4-yl)amino)-2-cyclopropyl-3,3-difluoro-7-methyl-1,2,3,4-tetrahydro-[1,4]oxazepino[2,3-c]quinolin-6(7H)-one], 19.5 nM.
Take `C[C@@H]1CN(C)CCN(c2ncc(Cl)c(Nc3ccc4c(c3)c3c(c(=O)n4C)OCC(F)(F)[C@H](C4CC4)N3)n2)C1` [Example 12g, (S)-10-((5-chloro-2-((R)-4,6-dimethyl-1,4-diazepan-1-yl)pyrimidin-4-yl)amino)-2-cyclopropyl-3,3-difluoro-7-methyl-1,2,3,4-tetrahydro-[1,4]oxazepino[2,3-c]quinolin-6(7H)-one:(S)-10-((5-chloro-2-((S)-4,6-dimethyl-1,4-diazepan-1-yl)pyrimidin-4-yl)amino)-2-cyclopropyl-3,3-difluoro-7-methyl-1,2,3,4-tetrahydro-[1,4]oxazepino[2,3-c]quinolin-6(7H)-one (1:1)]: the IC50 is 2.63 nM.
Take `Cn1c(=O)c2c(c3cc(Nc4nc(N5CCC(F)(F)C(C(=O)N6CCC6)C5)ncc4Cl)ccc31)N[C@@H](C1CC1)C(F)(F)CO2` (mixture of isomers) [Example 12x18, (2S)-10-((2-(3-(azetidine-1-carbonyl)-4,4-difluoropiperidin-1-yl)-5-chloropyrimidin-4-yl)amino)-2-cyclopropyl-3,3-difluoro-7-methyl-1,2,3,4-tetrahydro-[1,4]oxazepino[2,3-c]quinolin-6(7H)-one]: the IC50 was 5.5 nM.
Still for that read-out and setting: with `CC1CN(c2ncc(Cl)c(Nc3ccc4c(c3)c3c(c(=O)n4C)OCC(F)(F)[C@H](C4CC4)N3)n2)CCS1` (mixture of isomers) [Example 12f, (S)-10-((5-chloro-2-((R)-2-methylthiomorpholino)pyrimidin-4-yl)amino)-2-cyclopropyl-3,3-difluoro-7-methyl-1,2,3,4-tetrahydro-[1,4]oxazepino[2,3-c]quinolin-6(7H)-one:(S)-10-((5-chloro-2-((S)-2-methylthiomorpholino)pyrimidin-4-yl)amino)-2-cyclopropyl-3,3-difluoro-7-methyl-1,2,3,4-tetrahydro-[1,4]oxazepino[2,3-c]quinolin-6(7H)-one (1:1)] the figure was 9.55 nM; with `Cn1c(=O)c2c(c3cc(Nc4cc(N5CCC(F)(F)CC5)ncc4F)ccc31)N[C@@H](C1CC1)C(F)(F)CO2` [Example 13f04, (S)-2-cyclopropyl-10-((2-(4,4-difluoropiperidin-1-yl)-5-fluoropyridin-4-yl)amino)-3,3-difluoro-7-methyl-1,2,3,4-tetrahydro-[1,4]oxazepino[2,3-c]quinolin-6(7H)-one], 58.9 nM; with `CC1CCC(C)N(c2ncc(Cl)c(Nc3ccc4c(c3)c3c(c(=O)n4C)OCC(F)(F)[C@H](C4CC4)N3)n2)C1` (stereo partly drawn) [Example 12x12, (2S)-10-((5-chloro-2-(2,5-dimethylpiperidin-1-yl)pyrimidin-4-yl)amino)-2-cyclopropyl-3,3-difluoro-7-methyl-1,2,3,4-tetrahydro-[1,4]oxazepino[2,3-c]quinolin-6(7H)-one], 56.2 nM.
